US20060286040A1, “Medicament compositions comprising a heterocyclic compound and an anticholinergic” (Kyowa Hakko Kogyo Co., Ltd., priority 2003, published 2006)

Tested on: guinea pig main bronchus
Experiment: EFS-induced cholinergic and tachykininergic contraction in the guinea pig main bronchus (organ bath)
Settings: for Cholinergic Contraction, % of the first contraction / Tachykininergic contraction, % of the first contraction: EFS 30 V, 0.5 ms, 8 Hz, 15 s, 10 nmol/L tiotropium bromide and/or 30 μmol/L Compound 2, measured 20 min after addition, indomethacin 5 μmol/L, means ± S.E.M
[1] = 10 nmol/L tiotropium bromide and/or 30 μmol/L Compound 2, 20 min after addition

Molecule	Effect on EFS-induced tachykininergic contraction (in words) [1]	Cholinergic Contraction, % of the first contraction	Tachykininergic contraction, % of the first contraction	Effect on EFS-induced cholinergic contraction (in words) [1]
COc1ccc(C(=O)Cc2c(Cl)cncc2Cl)c2c1OC1(CCCC1)O2 [Compound 2]	inhibited the tachykininergic contraction	105.8 ± 2.4 % of the first contraction	66.1 ± 6.5 % of the first contraction	–
tiotropium bromide	–	59.7 ± 6.3 % of the first contraction	90.9 ± 8.3 % of the first contraction	inhibited the cholinergic contraction
